ChEMBL document CHEMBL1909046, “DrugMatrix in vitro pharmacology data”

Key:
[1] = target: T1, Alpha-2A adrenergic receptor (Homo sapiens, UniProt P08913); type: cell membranes, Sf9, Membrane; also: in other assays of this panel Not Active means under 50% inhibition at 10 µM
T1 sequence (P08913 whole entry): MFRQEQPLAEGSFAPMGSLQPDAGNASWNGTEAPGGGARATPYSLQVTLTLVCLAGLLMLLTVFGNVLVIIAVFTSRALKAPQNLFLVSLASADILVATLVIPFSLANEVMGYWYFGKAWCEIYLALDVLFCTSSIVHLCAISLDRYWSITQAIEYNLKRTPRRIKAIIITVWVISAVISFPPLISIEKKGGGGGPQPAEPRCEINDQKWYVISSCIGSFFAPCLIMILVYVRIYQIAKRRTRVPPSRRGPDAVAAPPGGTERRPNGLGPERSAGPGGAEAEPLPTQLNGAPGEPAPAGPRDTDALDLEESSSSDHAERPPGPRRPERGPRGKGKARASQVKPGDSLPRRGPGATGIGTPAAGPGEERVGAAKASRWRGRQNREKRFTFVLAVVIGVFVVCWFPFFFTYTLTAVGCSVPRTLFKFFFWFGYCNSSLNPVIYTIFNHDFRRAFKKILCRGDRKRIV

[2] = target: 5-hydroxytryptamine receptor 6 (Homo sapiens, UniProt P50406); type: cell membranes, HeLa, Membrane; also: in other assays of this panel Not Active means under 50% inhibition at 10 µM
[3] = DRUGMATRIX: Sigma2 radioligand binding (ligand: [3H] Ifenprodil); type: cell membranes, Rattus norvegicus, Wistar, Brain, Membrane; settings: Not Active = under 50% inhibition at 10 µM
[4] = target: Substance-P receptor (Homo sapiens, UniProt P25103); type: cell membranes, CHO, Membrane; settings: cho; also: in other assays of this panel Not Active means under 50% inhibition at 10 µM
[5] = target: Cannabinoid receptor 1 (Homo sapiens, UniProt P21554); type: cell membranes, Membrane; settings: chem-1; also: in other assays of this panel Not Active means under 50% inhibition at 10 µM
[6] = target: Carbonic anhydrase 2 (Homo sapiens, UniProt P00918); experiment: DRUGMATRIX: Carbonic Anhydrase II enzyme inhibition (substrate: 4-Nitrophenyl acetate (4-NPA)); type: tissue-based, Erythrocyte; settings: erythrocyte; Not Active = under 50% inhibition at 10 µM
[7] = target: C-C chemokine receptor type 5 (Homo sapiens, UniProt P51681); type: cell membranes, Membrane; settings: hek293; also: in other assays of this panel Not Active means under 50% inhibition at 10 µM
[8] = target: Sodium-dependent dopamine transporter (Homo sapiens, UniProt Q01959); experiment: DRUGMATRIX: Dopamine Transporter radioligand binding (ligand: [125I] RTI-55); type: cell membranes, CHO-K1, Membrane; settings: Not Active = under 50% inhibition at 10 µM
[9] = DRUGMATRIX: GABAA, Chloride Channel, TBOB radioligand binding (ligand: [3H] TBOB); type: cell membranes, Rattus norvegicus, Wistar, Cerebral cortex, Membrane; settings: Not Active = under 50% inhibition at 10 µM
[10] = DRUGMATRIX: Imidazoline I2, Central radioligand binding (ligand: [3H] Idazoxan); type: cell membranes, Rattus norvegicus, Wistar, Cerebral cortex, Membrane; settings: Not Active = under 50% inhibition at 10 µM
[11] = target: T2, Cathepsin G (Homo sapiens, UniProt P08311); type: tissue-based; settings: neutrophil
T2 sequence (P08311 whole entry): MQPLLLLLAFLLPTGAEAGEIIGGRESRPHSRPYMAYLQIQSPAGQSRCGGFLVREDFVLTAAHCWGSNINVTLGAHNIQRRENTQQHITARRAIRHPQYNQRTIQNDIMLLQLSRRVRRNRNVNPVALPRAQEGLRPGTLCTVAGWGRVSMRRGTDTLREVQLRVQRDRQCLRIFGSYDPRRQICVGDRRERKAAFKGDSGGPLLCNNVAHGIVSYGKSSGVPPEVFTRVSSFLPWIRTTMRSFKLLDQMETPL

[12] = target: Epidermal growth factor receptor (Homo sapiens, UniProt P00533); experiment: DRUGMATRIX: Protein Tyrosine Kinase, EGF Receptor enzyme inhibition (substrate: Poly(Glu:Tyr)); type: cell-based, Insect cells; settings: Not Active = under 50% inhibition at 10 µM
[13] = DRUGMATRIX: Purinergic P2X radioligand binding (ligand: [3H] alpha, beta-Methylene-ATP); type: cell membranes, Oryctolagus cuniculus, New Zealand albino, Urinary bladder, Membrane; settings: Not Active = under 50% inhibition at 10 µM
[14] = target: T3, Adenosine receptor A1 (Homo sapiens, UniProt P30542); type: cell membranes, CHO, Membrane; settings: cho
T3 sequence (P30542 whole entry): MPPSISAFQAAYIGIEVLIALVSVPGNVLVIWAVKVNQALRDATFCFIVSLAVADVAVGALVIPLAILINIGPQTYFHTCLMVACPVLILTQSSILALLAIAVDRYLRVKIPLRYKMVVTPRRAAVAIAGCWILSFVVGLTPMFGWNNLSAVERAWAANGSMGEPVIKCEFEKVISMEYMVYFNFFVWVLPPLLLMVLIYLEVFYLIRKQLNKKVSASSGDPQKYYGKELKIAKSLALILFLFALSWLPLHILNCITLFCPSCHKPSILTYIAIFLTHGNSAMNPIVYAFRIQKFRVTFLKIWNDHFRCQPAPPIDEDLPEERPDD

[15] = target: T4, Glucocorticoid receptor (Homo sapiens, UniProt P04150); settings: hela s3; also: in other assays of this panel Not Active means under 50% inhibition at 10 µM
T4 sequence (P04150 whole entry): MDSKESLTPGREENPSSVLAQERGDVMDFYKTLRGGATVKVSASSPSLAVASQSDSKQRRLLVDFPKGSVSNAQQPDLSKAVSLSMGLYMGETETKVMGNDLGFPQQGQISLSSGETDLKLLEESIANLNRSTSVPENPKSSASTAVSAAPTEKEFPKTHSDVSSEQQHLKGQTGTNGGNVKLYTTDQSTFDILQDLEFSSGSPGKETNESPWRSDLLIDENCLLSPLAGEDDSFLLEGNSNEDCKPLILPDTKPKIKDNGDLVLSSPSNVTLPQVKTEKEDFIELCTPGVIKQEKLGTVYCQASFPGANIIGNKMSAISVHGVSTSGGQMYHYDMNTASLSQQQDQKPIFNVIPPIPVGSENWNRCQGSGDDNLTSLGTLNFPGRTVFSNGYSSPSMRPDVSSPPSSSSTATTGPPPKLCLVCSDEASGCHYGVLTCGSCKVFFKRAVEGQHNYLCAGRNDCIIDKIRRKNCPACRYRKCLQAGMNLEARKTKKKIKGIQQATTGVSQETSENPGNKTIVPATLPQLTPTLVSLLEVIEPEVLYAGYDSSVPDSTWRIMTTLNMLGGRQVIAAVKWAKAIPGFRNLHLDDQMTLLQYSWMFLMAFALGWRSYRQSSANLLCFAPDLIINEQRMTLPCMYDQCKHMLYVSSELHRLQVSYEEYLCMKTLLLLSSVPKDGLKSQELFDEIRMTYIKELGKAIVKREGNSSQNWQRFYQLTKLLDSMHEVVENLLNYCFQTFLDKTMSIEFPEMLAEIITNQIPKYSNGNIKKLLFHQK

Sodium-dependent dopamine transporter, sequence (Q01959 whole entry): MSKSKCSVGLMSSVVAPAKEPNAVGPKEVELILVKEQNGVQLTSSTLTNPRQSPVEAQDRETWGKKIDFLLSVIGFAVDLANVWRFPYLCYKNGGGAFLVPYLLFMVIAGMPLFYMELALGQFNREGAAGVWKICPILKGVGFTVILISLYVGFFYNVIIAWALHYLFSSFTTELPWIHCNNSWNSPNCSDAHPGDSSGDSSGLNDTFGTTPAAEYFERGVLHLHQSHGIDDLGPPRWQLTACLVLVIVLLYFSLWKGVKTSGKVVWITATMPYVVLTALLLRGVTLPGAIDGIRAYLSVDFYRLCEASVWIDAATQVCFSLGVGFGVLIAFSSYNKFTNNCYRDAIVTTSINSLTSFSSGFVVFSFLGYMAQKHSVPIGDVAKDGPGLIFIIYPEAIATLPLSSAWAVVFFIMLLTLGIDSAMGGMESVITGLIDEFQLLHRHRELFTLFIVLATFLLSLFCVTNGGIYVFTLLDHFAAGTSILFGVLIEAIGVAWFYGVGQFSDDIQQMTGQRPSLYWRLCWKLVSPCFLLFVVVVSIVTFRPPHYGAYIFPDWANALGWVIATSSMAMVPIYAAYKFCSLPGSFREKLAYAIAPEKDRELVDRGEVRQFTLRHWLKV
Substance-P receptor, sequence (P25103 whole entry): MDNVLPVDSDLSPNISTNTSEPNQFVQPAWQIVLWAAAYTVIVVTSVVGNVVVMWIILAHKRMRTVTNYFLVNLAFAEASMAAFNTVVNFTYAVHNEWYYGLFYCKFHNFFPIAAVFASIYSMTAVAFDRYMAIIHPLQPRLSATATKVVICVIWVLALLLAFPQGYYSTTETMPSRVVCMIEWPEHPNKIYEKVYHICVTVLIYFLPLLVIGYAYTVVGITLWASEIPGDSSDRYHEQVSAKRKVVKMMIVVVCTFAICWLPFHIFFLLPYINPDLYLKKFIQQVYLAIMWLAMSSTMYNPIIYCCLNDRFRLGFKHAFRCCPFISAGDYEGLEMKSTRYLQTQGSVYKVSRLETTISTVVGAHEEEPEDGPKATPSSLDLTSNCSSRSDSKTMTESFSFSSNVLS
5-hydroxytryptamine receptor 6, sequence (P50406 whole entry): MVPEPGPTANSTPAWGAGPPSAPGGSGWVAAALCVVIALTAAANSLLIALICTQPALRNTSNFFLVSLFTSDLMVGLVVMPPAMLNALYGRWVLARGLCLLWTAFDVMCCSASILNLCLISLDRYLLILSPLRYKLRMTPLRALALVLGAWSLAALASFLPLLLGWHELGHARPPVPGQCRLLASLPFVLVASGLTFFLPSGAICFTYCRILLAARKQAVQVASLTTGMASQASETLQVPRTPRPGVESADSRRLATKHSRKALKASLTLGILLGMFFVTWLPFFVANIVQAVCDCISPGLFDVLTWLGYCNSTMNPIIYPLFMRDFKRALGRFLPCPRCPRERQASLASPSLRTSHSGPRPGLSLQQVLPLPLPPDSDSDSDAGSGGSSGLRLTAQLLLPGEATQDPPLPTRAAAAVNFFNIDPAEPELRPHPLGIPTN
Epidermal growth factor receptor, sequence (P00533 whole entry): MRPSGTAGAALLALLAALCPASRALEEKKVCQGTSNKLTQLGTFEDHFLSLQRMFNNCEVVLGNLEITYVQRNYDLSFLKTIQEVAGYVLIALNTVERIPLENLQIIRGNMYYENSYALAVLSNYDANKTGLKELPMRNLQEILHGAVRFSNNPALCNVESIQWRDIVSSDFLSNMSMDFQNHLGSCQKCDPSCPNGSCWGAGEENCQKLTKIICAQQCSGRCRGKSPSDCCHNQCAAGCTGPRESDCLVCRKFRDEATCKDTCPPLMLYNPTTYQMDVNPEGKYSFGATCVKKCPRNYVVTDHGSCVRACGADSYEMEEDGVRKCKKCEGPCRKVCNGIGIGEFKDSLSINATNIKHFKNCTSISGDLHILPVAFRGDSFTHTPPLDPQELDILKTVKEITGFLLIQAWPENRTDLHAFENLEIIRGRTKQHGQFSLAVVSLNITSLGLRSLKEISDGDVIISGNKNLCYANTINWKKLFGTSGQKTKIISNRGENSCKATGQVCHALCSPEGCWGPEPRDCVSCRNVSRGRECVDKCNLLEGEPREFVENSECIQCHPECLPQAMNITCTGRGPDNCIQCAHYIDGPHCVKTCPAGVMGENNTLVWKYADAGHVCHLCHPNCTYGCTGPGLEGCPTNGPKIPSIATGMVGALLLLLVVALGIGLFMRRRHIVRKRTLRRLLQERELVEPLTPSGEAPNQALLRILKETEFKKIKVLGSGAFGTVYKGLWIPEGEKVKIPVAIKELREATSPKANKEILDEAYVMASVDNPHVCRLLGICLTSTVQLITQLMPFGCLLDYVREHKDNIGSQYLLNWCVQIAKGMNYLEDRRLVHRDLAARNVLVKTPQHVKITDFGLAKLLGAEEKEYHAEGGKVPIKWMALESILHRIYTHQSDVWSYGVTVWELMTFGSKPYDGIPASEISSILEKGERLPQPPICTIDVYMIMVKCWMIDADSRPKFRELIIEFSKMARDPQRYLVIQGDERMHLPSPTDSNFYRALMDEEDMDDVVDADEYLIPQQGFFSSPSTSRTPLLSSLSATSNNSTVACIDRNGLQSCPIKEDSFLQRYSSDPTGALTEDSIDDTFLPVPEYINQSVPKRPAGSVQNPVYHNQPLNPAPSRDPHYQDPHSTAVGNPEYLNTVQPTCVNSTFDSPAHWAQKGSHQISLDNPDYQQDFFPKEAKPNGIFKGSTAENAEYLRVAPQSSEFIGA
C-C chemokine receptor type 5, sequence (P51681 whole entry): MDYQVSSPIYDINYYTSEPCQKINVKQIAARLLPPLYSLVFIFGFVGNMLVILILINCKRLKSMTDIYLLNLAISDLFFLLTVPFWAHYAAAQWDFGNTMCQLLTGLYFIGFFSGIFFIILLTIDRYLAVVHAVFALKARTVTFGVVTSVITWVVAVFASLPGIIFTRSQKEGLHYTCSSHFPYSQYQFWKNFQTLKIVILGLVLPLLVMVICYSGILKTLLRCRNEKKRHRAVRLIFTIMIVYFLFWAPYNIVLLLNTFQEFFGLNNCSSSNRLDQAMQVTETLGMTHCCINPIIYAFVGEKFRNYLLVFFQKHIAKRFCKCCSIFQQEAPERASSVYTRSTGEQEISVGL
Cannabinoid receptor 1, sequence (P21554 whole entry): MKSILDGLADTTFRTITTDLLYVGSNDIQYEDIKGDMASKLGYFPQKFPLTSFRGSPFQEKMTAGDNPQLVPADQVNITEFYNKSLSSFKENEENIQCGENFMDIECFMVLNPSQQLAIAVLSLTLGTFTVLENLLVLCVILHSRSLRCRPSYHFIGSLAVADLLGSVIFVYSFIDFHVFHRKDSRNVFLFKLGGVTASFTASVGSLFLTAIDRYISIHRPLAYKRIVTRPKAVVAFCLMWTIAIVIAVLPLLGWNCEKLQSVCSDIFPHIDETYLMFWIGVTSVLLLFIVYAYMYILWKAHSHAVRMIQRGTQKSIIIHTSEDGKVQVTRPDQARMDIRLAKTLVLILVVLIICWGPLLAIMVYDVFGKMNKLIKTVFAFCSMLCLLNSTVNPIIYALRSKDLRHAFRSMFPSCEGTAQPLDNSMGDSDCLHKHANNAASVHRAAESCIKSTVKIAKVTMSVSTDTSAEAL

Compound	IC50 ([1]; sf9)	IC50 ([2]; hela)	IC50 [3]	Ki [3]	IC50 [4]	IC50 [5]	IC50 [6]	IC50 [7]	IC50 ([8]; cho-k1)	IC50 [9]	Ki [9]	IC50 [10]	Ki [10]	IC50 [11]	IC50 ([12]; insect cells)	IC50 [13]	Ki [13]	IC50 [14]	IC50 [15]	further results
COc1ccc2cc(CC(=O)O)ccc2c1	Not Active	Not Active	Not Active	Not Active	Not Active	Not Active	Not Active	Not Active	Not Active	Not Active	Not Active	Not Active	Not Active	Not Active	Not Active	Not Active	Not Active	Not Active	Not Active	
CC(C)NC[C@H](O)COc1cccc2[nH]ccc12	Not Active	Not Active	Not Active	Not Active	Not Active	Not Active	Not Active	Not Active	Not Active	Not Active	Not Active	Not Active	Not Active	Not Active	Not Active	Not Active	Not Active	Not Active	Not Active	
c1ccc2c(c1)cc1ccc3cccc4ccc2c1c34	Not Active	Not Active	Not Active	Not Active	Not Active	Not Active	Not Active	Not Active	Not Active	Not Active	Not Active	Not Active	Not Active	Not Active	Not Active	Not Active	Not Active	Not Active	Not Active	
CC=CC(=O)N(CC)c1ccccc1C	Not Active	Not Active	Not Active	Not Active	Not Active	Not Active	Not Active	Not Active	Not Active	Not Active	Not Active	Not Active	Not Active	Not Active	Not Active	Not Active	Not Active	Not Active	Not Active	
Oc1c(Cl)cc(Cl)cc1Sc1cc(Cl)cc(Cl)c1O [BITHIONOL]		Not Active	Not Active	Not Active	Not Active	Not Active	Not Active	Not Active		Not Active	Not Active	Not Active	Not Active	Not Active		Not Active	Not Active	Not Active	Not Active	IC50 ([1]; read-out: IC50): 3820 nM; Ki ([1]; read-out: Ki): 1430 nM; IC50 ([12]; read-out: IC50): 614 nM
CNCCC=C1c2ccccc2CCc2ccccc21 [NORTRIPTYLINE]			Not Active	Not Active	Not Active	Not Active	Not Active	Not Active		Not Active	Not Active			Not Active	Not Active	Not Active	Not Active	Not Active	Not Active	IC50 ([2]; read-out: IC50): 554 nM; Ki ([2]; read-out: Ki): 257 nM; IC50 ([8]; read-out: IC50): 1680 nM; Ki ([8]; read-out: Ki): 1330 nM; IC50 ([10]; read-out: IC50): 3860 nM; Ki ([10]; read-out: Ki): 2570 nM
Fc1ccc([C@@H]2CCNC[C@H]2COc2ccc3c(c2)OCO3)cc1 [PAROXETINE]	Not Active	Not Active	Not Active	Not Active	Not Active	Not Active	Not Active	Not Active		Not Active	Not Active	Not Active	Not Active	Not Active	Not Active	Not Active	Not Active	Not Active	Not Active	
GOLD SODIUM THIOMALATE	Not Active	Not Active	Not Active	Not Active	Not Active	Not Active	Not Active	Not Active	Not Active	Not Active	Not Active	Not Active	Not Active	Not Active		Not Active	Not Active	Not Active	Not Active	Ki ([1]; sf9): Not Active; Ki ([2]; hela): Not Active; Ki [4]: Not Active; Ki [5]: Not Active; Ki [6]: Not Active; Ki [7]: Not Active; Ki ([8]; cho-k1): Not Active; Ki [11]: Not Active; Ki [14]: Not Active; Ki [15]: Not Active
